Test results: patent US11242370B2, “Neuregulin-4 compounds and methods of use” (Eli Lilly and Company, priority 2019, dated 2022)
Marks after values point to notes of the source that are not given here. One block for each molecule: values may come before it.

Legend:
[1] = system: rat model of heart failure with reduced ejection fraction (HFrEF); assay: Rat MI model, captopril, Example 10 or combination, echocardiography; assay type: in vivo; set-up: Left Ventricle Diameter (end diastole): unit not given here
Procedure: A nonclinical efficacy pharmacology study is conducted in a rat model of heart failure with reduced ejection fraction (HFrEF) to evaluate cardiac function and structure changes after captopril treatment, Example 10 treatment or combination treatment.
The left coronary artery is permanently ligated. All rats are individually housed in a temperature and humidity controlled room and maintained on a 12 hour light/dark cycle. Two to three weeks after surgery, rats undergo transthoracic echocardiography for determination of ejection fraction (EF %) and left ventricle dimensions (LVD) using a Vevo 2100 ultrasound system. Rats are randomized across treatment groups according to EF % and LVD.
Measurements of EF % and LVD are expressed as mean values±standard error (SE). Statistical analysis is performed with JMP® 13 software (SAS Institute, Inc.; Cary, N.C.) and Dunnett's Test is used for statistical comparisons across treatment groups. Statistical significance is accepted at P<0.05.
Three weeks after MI surgery, animals are randomized to 2 treatment groups (Placebo or captopril, 2 g/L in drinking water, ad lib) according to EF % and LVD. Three weeks and four weeks after dosing starts, cardiac function (EF %) and structure (LVD) are evaluated by transthoracic echocardiography. Animals are further randomized to additional groups based on cardiac function (EF %) and structure (LVD) to the following groups: Placebo, Example 10, captopril and Example 10+captopril. Animals in the Example 10 groups receive a single injection on week 4 after the 2nd randomization. Cardiac function (EF %) and structure (LVD) are evaluated on week 5 and 6.

[2] = biological target: T1, human HER2 and HER4 (Homo sapiens, UniProt Q15303); assay: Screening by human HER2-HER4 mediated ERK 1/2 phosphorylation in CHO-hHER2-hHER4 (clone 1H6) cells; assay type: cell-based; conditions: Fc variants as 293F supernatants
T1 construct: expressed in transfected cells
Procedure: A cell based assay utilizing CHO-K1 cells overexpressing human or rat HER receptors is used to determine activity of NRG4 compounds. CHO-K1 cells (ATCC) are grown in DMEM-F12 3:1 with 5% FBS with 20 mM HEPES, 40 μg/mL L-Proline, lx antibiotics and were split 1:5 every 2-3 days with TripLE Express (Gibco). Cells are transfected with plasmid DNA encoding HER receptors in pairs (hHER2-3, hHER2-4, rHER2-3 and rHER2-4) with Fugene 6 (Promega) according to the manufacturer's instructions. […] Transfected cells are selected with Puromycin (12 ug/ml) and Hygromycin (1 mg/ml) for 3-4 weeks and clonal lines are obtained by limited dilution cloning into 96 well plates. Clonal lines are selected by appropriate gene expression of HER2, HER3 or HER4 by Taqman method. Lines with appropriate receptor expression are confirmed by NRG1 induced phospho-ERK 1/2 responses. Clones are grown up, harvested, aliquoted into cryovials and then frozen under liquid nitrogen for long-term storage.
A phospho-ERK1/2 activity assay is used to determine potencies of NRG4 compounds. The potency of Examples 1-8 and 10 as compared to WT human NRG1 and/or human NRG4 are analyzed in studies measuring stimulation of human HER2-HER4 mediated ERK 1/2 phosphorylation. This assay comprises a CHO-K1 stable line expressing human HER2 and HER4. CHO-hHER2-hHER4 (clone 1H6) cells are routinely cultured in DMEM: F12(3:1), 5% FBS, 40 μg/mL L-Proline, 10 μg/mL puromycin and 1 mg/mL hygromycin at 37° C., 5% CO2. Cells are washed twice with 1×PBS, dissociated with 0.05% trypsin/[…] EDTA and collected by centrifugation at 300×g for 10 m. Cells are re-suspended in maintenance media. 20,000 cells/well, in 30 μL, are seeded into 384 well Poly-D-Lysine cell culture plates (Greiner, Cat No. 781946). Plates are covered with a manufacturer's lid and moved to a 37° C. tissue culture incubator at 5% CO^2, 80%+ humidity and allowed to adhere. After 24 h, media are removed from the plates and replaced with 30 μL serum-free starvation media (Low glucose DMEM with 0.1% BSA) using a Biomek FX liquid handler. Plates are returned to the incubator for 24 h.
hFcNRG4 variants, transiently expressed as 293F supernatants, are prepared in starvation media in a clear 384W plate (Greiner, cat no. 781185) as a 4pt 1:8 serial dilution (dose range averaged between 250 pM to 140000 pM). Media are removed from the cell culture plates and the 30 uL/well prepared variants are stamped into the plates using a Biomek FX liquid handler. Plates are sealed with a foil seal and stimulated for 15 minutes at room temperature on an orbital shaker. Cells are then washed once with 50 uL cold PBS. 30 uL lysis buffer is added to the cells and oscillated for 10 m at RT on an orbital shaker.
Detection of phosphorylation of ERR 1/2 is performed with either an AlphaScreen SureFire phospho-ERK1/2 kit (T202/Y204) (Perkin Elmer, catalog no. TGRES) or an AlphaLISA® SureFire® Ultra™ p ERK1/2 assay kit together with the AlphaScreen Protein. A IgG Detection Kit (Protein-A) (PerkinElmer, catalogue no. 6760617). After lysis of the CHO-K1 cells. 4 μL lysate is transferred to a 384W Alpha Proxiplate (Perkin Elmer, cat no, 6008280) with a 384W Biomek FX. 4 uL positive and negative lysates (Perkin Elmer, TGRES-L) are added to available wells as controls. 5 uL/well acceptor mix (containing anti-phoso-Thr202/Tyr204 antibodies and Protein A conjugated acceptor beads) is added to the plate with a Forumlatrix Mantis. The plate is sealed, spun down for 1 min at 300×g and incubated for 2 hr at room temperature on an orbital shaker. 2 μL/well donor mix (containing strepavidin coated donor beads and biotinylated antibodies to a distal ERK1/2 epitope) is dispensed by Mantis. The plate is sealed, spun down for 1 min at 300×g and incubated for 2 hr at room temperature on an orbital shaker before reading on the Perkin Elmer Envision 2103 Multilabel Reader (HIS Alpha mode, excitation time: 40 ms, total measurement time: 130 ms). […]

[3] = Baseline (before captopril 2 g/L in drinking water)
[4] = Week 3 of captopril 2 g/L in drinking water
[5] = Week 4 (2nd randomization; before the single injection of Example 10)
[6] = Week 5 (single injection of Example 10 on week 4; captopril 2 g/L in drinking water)
[7] = Week 6 (single injection of Example 10 on week 4; captopril 2 g/L in drinking water)
[8] = Table 5, Examples average of two replicates ± standard deviation

EC50 [2, 8]: 0.53 ± 0.05 nM
B2: Example 4: NRG4 D1G/I26F, (GGGGS)3 linker, SEQ ID NO: 13, fused to IgG Fc dimer SEQ ID NO: 6 and 7 (protein)
chain 1: GGGGSGGGGSGGGGSGHEEPCGPSHKSFCLNGGLCYVIPTFPSPFCRCVENYTGARCEEVFL
chain 2: ECPPCPAPPVAGPSVFLFPPKPKDTLMISRTPEVTCVVVDVSHEDPEVQFNWYVDGVEVHNAKTKPREEQFNSTFRVVSVLTVVHQDWLNGKEYKCKVSNKGLPAPIEKTISKTKGQPREPQVYTLPPSREEMTKNQVSLWCLVKGFYPSDIAVEWESNGQPENNYKTTPPVLDSDGSFFLYSKLTVDKSRWQQGNVFSCSVMHEALHNHYTQKSLSLSPG
chain 3: ECPPCPAPPVAGPSVFLFPPKPKDTLMISRTPEVTCVVVDVSHEDPEVQFNWYVDGVEVHNAKTKPREEQFNSTFRVVSVLTVVHQDWLNGKEYKCKVSNKGLPAPIEKTISKTKGQPREPQVYTLPPSREEMTKNQVSLSCAVKGFYPSDIAVEWESNGQPENNYKTTPPVLDSDGSFFLVSKLTVDKSRWQQGNVFSCSVMHEALHNHYTQKSLSLSPG

EC50 [2, 8]: 0.84 ± 0.27 nM
B4: Example 5: NRG4 D1G/E35A, (GGGGS)3 linker, SEQ ID NO: 14, fused to IgG Fc dimer SEQ ID NO: 6 and 7 (protein)
chain 1: GGGGSGGGGSGGGGSGHEEPCGPSHKSFCLNGGLCYVIPTIPSPFCRCVANYTGARCEEVFL
chain 2: ECPPCPAPPVAGPSVFLFPPKPKDTLMISRTPEVTCVVVDVSHEDPEVQFNWYVDGVEVHNAKTKPREEQFNSTFRVVSVLTVVHQDWLNGKEYKCKVSNKGLPAPIEKTISKTKGQPREPQVYTLPPSREEMTKNQVSLWCLVKGFYPSDIAVEWESNGQPENNYKTTPPVLDSDGSFFLYSKLTVDKSRWQQGNVFSCSVMHEALHNHYTQKSLSLSPG
chain 3: ECPPCPAPPVAGPSVFLFPPKPKDTLMISRTPEVTCVVVDVSHEDPEVQFNWYVDGVEVHNAKTKPREEQFNSTFRVVSVLTVVHQDWLNGKEYKCKVSNKGLPAPIEKTISKTKGQPREPQVYTLPPSREEMTKNQVSLSCAVKGFYPSDIAVEWESNGQPENNYKTTPPVLDSDGSFFLVSKLTVDKSRWQQGNVFSCSVMHEALHNHYTQKSLSLSPG

EC50 ([2]; Table 6): 0.403 nM
B5: Example 8: NRG4 D1G/I26F/P8E, (GGGGS)3 linker, SEQ ID NO: 17, fused to IgG Fc dimer SEQ ID NO: 6 and 7 (protein)
chain 1: GGGGSGGGGSGGGGSGHEEPCGESHKSFCLNGGLCYVIPTFPSPFCRCVENYTGARCEEVFL
chain 2: ECPPCPAPPVAGPSVFLFPPKPKDTLMISRTPEVTCVVVDVSHEDPEVQFNWYVDGVEVHNAKTKPREEQFNSTFRVVSVLTVVHQDWLNGKEYKCKVSNKGLPAPIEKTISKTKGQPREPQVYTLPPSREEMTKNQVSLWCLVKGFYPSDIAVEWESNGQPENNYKTTPPVLDSDGSFFLYSKLTVDKSRWQQGNVFSCSVMHEALHNHYTQKSLSLSPG
chain 3: ECPPCPAPPVAGPSVFLFPPKPKDTLMISRTPEVTCVVVDVSHEDPEVQFNWYVDGVEVHNAKTKPREEQFNSTFRVVSVLTVVHQDWLNGKEYKCKVSNKGLPAPIEKTISKTKGQPREPQVYTLPPSREEMTKNQVSLSCAVKGFYPSDIAVEWESNGQPENNYKTTPPVLDSDGSFFLVSKLTVDKSRWQQGNVFSCSVMHEALHNHYTQKSLSLSPG

Second part, the molecule before the results:

Molecule: C[C@H](CS)C(=O)N1CCC[C@H]1C(=O)O [Captopril, captopril]
Ejection Fraction [1, 3]: 39.1% | Left Ventricle Diameter (end diastole) [1, 3]: 8.66 | Ejection Fraction [1, 4]: 38.4% | Left Ventricle Diameter (end diastole) [1, 4]: 8.57 | Ejection Fraction [1, 5]: 36.1% | Left Ventricle Diameter (end diastole) [1, 5]: 8.64 | Ejection Fraction [1, 6]: 36.2% | Left Ventricle Diameter (end diastole) [1, 6]: 8.64* | Ejection Fraction [1, 7]: 34.6% | Left Ventricle Diameter (end diastole) [1, 7]: 8.71*

B1: Example 3: NRG4 D1G/V22Q, (GGGGS)3 linker, SEQ ID NO: 12, fused to IgG Fc dimer SEQ ID NO: 6 and 7 (protein)
chain 1: GGGGSGGGGSGGGGSGHEEPCGPSHKSFCLNGGLCYQIPTIPSPFCRCVENYTGARCEEVFL
chain 2: ECPPCPAPPVAGPSVFLFPPKPKDTLMISRTPEVTCVVVDVSHEDPEVQFNWYVDGVEVHNAKTKPREEQFNSTFRVVSVLTVVHQDWLNGKEYKCKVSNKGLPAPIEKTISKTKGQPREPQVYTLPPSREEMTKNQVSLWCLVKGFYPSDIAVEWESNGQPENNYKTTPPVLDSDGSFFLYSKLTVDKSRWQQGNVFSCSVMHEALHNHYTQKSLSLSPG
chain 3: ECPPCPAPPVAGPSVFLFPPKPKDTLMISRTPEVTCVVVDVSHEDPEVQFNWYVDGVEVHNAKTKPREEQFNSTFRVVSVLTVVHQDWLNGKEYKCKVSNKGLPAPIEKTISKTKGQPREPQVYTLPPSREEMTKNQVSLSCAVKGFYPSDIAVEWESNGQPENNYKTTPPVLDSDGSFFLVSKLTVDKSRWQQGNVFSCSVMHEALHNHYTQKSLSLSPG
EC50 [2, 8]: 0.29 ± 0.01 nM

B3: Example 2: NRG4 D1G/P8E, (GGGGS)3 linker, SEQ ID NO: 11, fused to IgG Fc dimer SEQ ID NO: 6 and 7 (protein)
chain 1: GGGGSGGGGSGGGGSGHEEPCGESHKSFCLNGGLCYVIPTIPSPFCRCVENYTGARCEEVFL
chain 2: ECPPCPAPPVAGPSVFLFPPKPKDTLMISRTPEVTCVVVDVSHEDPEVQFNWYVDGVEVHNAKTKPREEQFNSTFRVVSVLTVVHQDWLNGKEYKCKVSNKGLPAPIEKTISKTKGQPREPQVYTLPPSREEMTKNQVSLWCLVKGFYPSDIAVEWESNGQPENNYKTTPPVLDSDGSFFLYSKLTVDKSRWQQGNVFSCSVMHEALHNHYTQKSLSLSPG
chain 3: ECPPCPAPPVAGPSVFLFPPKPKDTLMISRTPEVTCVVVDVSHEDPEVQFNWYVDGVEVHNAKTKPREEQFNSTFRVVSVLTVVHQDWLNGKEYKCKVSNKGLPAPIEKTISKTKGQPREPQVYTLPPSREEMTKNQVSLSCAVKGFYPSDIAVEWESNGQPENNYKTTPPVLDSDGSFFLVSKLTVDKSRWQQGNVFSCSVMHEALHNHYTQKSLSLSPG
EC50 [2, 8]: 2.77 ± 0.39 nM
